The target of experiment [1] is T1, Type-1 angiotensin II receptor (Oryctolagus cuniculus) (UniProt P34976).
T1 sequence (whole entry): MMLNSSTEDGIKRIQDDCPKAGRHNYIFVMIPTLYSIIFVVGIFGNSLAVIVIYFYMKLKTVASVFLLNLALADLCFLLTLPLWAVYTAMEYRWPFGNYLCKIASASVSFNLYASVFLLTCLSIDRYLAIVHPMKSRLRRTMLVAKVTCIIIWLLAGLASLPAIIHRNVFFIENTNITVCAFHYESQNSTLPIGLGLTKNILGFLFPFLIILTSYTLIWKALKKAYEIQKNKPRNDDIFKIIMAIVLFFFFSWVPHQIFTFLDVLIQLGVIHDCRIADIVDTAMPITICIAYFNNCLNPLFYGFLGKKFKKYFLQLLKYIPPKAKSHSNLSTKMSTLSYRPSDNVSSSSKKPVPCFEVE
The experiment is described as follows: In vitro antagonist activity against Angiotensin II Receptor (Ang II) in isolated rabbit thoracic aorta. The experiment is classed as functional, tissue-based.

In experiment [2] the test system is Rattus norvegicus. The experiment is described as follows: Evaluated in vivo for its ability to block the pressor response to Ang II in pithed rats following oral administration; NA means not active at the dose (10 mg/kg) and time tested (4 h). In kind it is functional, organism-based.
For experiment [3], the system named is Rattus norvegicus. The experiment is described as follows: Evaluated in vivo for its ability to block the pressor response to Ang II in pithed rats following oral administration. In kind it is functional.

Active and inactive are the calls of the source. The calls are words filed in the database; no cut-off is given here.

Regarding `CCCCCCC(C(=O)O)n1cnc2cc(-c3ccccc3S(=O)(=O)O)ccc21` (stereo in doubt), the pKB in experiment [1] came out at 5.6.
Regarding `CCCCCCC(C(=O)O)n1cnc2cc(-c3ccccc3S(=O)(=O)O)ccc21` (stereo in doubt; 4), the pKB in experiment [1] is 7.7. Besides, the KB entry with Rattus norvegicus [2] was “inactive”.
`CCCCCC[C@H](C(=O)N1C[C@@H](Oc2ccc(CC(=O)O)cc2)C[C@H]1C(=O)O)n1cnc(NC(=O)c2ccccc2S(=O)(=O)O)c1` came in with a pKB in experiment [1] of 9.7. For the same molecule, in the experiment with Rattus norvegicus [3], the KB stood at 2.8 mg/kg.
Take `CCCCCC[C@H](C(=O)N1C[C@@H](Oc2ccccc2)C[C@H]1C(=O)O)n1cnc(NC(=O)c2ccccc2S(=O)(=O)O)c1`: in experiment [1], the pKB turned out to be 9.1.
Same read-out and setting: for `CCCCCC[C@@H](C(=O)N1C[C@@H](Oc2ccc(CC(=O)O)cc2)C[C@H]1C(=O)O)n1cnc2cc(-c3ccccc3S(=O)(=O)O)ccc21` the value was 7.8.
In the case of `CCCCCCC(C(=O)O)n1cnc(NC(=O)c2ccccc2S(=O)(=O)O)c1` (centres undefined), the pKB in experiment [1] was determined as 7.2. Also, the KB result with Rattus norvegicus [2] is “inactive”.
For `CCCCCC[C@@H](C(=O)N1C[C@@H](Oc2ccccc2)C[C@H]1C(=O)O)n1cnc(NC(=O)c2ccccc2S(=O)(=O)O)c1`, the pKB in experiment [1] was determined as 7.6.
Regarding `CCCCCC[C@@H](C(=O)N1C[C@@H](Oc2ccc(CC(=O)O)cc2)C[C@H]1C(=O)O)n1cnc(NC(=O)c2ccccc2S(=O)(=O)O)c1`, in experiment [1], the pKB amounted to 8.4. Moreover, the KB entry with Rattus norvegicus [2] is “inactive”.
The molecule `CCCCCC[C@H](C(=O)N1C[C@@H](Oc2ccc(CC(=O)O)cc2)C[C@H]1C(=O)O)n1cnc2cc(-c3ccccc3S(=O)(=O)O)ccc21` had a pKB in experiment [1] of 9. Also, the KB result in the experiment with Rattus norvegicus [2] was “inactive”.

(Values after ChEMBL document CHEMBL1128886, “Synthesis and pharmacological evaluation of a novel series of 5-aryl benzimidazole angiotensin II receptor antagonists” (1995).)
